Assay results: publication PMC9019904, “AD Informer Set: Chemical tools to facilitate Alzheimer's disease drug discovery” (Alzheimer's & Dementia : Translational Research & Clinical …, 2022)

What was measured:
[1] = tested on: HMC3 (human microglia) cell line; experiment: pHrodo-myelin phagocytosis/cell viability high content imaging assay: viability (cell count, nuclear area, nuclear intensity)
Outline: (§1)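 BV2 mouse and HMC3 human microglia were treated with compounds at 10 μM for 48 h, with pHrodo-myelin present for the last 20 h. Viability was imaged as total cell count per well and mean nuclear intensity per cell. Values are means of duplicates, normalized to untreated wells as % control.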

[2] = tested on: BV2 (mouse microglia) cell line; experiment: as above
Outline: as §1

[3] = tested on: HMC3 (human microglia) cell line; experiment: pHrodo-myelin phagocytosis/cell viability high content imaging assay: phagocytosis signal; format: cell-based
Outline: (§2)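 Mouse BV2 and human HMC3 microglia given pHrodo-myelin; phagocytosis and cell viability imaged together by high content imaging about 22 hours after myelin addition. Three measurements extracted, including intensity increase and decrease marking early and later apoptosis.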

[4] = tested on: BV2 (mouse microglia) cell line; experiment: as above; format: cell-based
Outline: as §2

[5] = HMC3, compound 10 uM, 48 hours treatment
[6] = BV2, compound 10 uM, 48 hours treatment
[7] = HMC3, compound 10 uM, pHrodo-myelin
[8] = BV2, compound 10 uM, pHrodo-myelin
[9] = HMC3 cells, 10 uM compound, 48 hours treatment
[10] = BV2 cells, 10 uM compound, 48 hours treatment
[11] = HMC3 cells, 10 uM compound, 48 hours treatment, pHrodo-myelin final 20 hours
[12] = BV2 cells, 10 uM compound, 48 hours treatment, pHrodo-myelin final 20 hours

SMILES | 1. Cell count (% control) [1, 9] | 2. Nuclear Area (% Control) [1, 9] | 3. Nuclear DNA Intensity (% control) [1, 9] | 1. Cell count (% control) [2, 10] | 2. Nuclear Area (% Control) [2, 10] | 3. Nuclear DNA Intensity (% control) [2, 10] | 4. Phagocytosis (% control) [3, 11] | 4. Phagocytosis (% control) [4, 12] | further results
CC(=O)c1nc([C@@H](O)[C@H](O)[C@H](O)CO)c[nH]1 [UNC10303188A] | – | – | – | – | – | – | – | – | 1. Cell count (% control) [1, 5]: 133.0 % control; 2. Nuclear Area (% Control) [1, 5]: 98.0 % Control; 3. Nuclear DNA Intensity (% control) [1, 5]: 87.6 % control; 1. Cell count (% control) [2, 6]: 136.1 % control; 2. Nuclear Area (% Control) [2, 6]: 102.5 % Control; 3. Nuclear DNA Intensity (% control) [2, 6]: 102.7 % control; 4. Phagocytosis (% control) [3, 7]: 91.3 % control; 4. Phagocytosis (% control) [4, 8]: 181.8 % control
CC(C)c1ccc(/C=N/NC(=O)c2ccc(O)cc2)cc1 [UNC10302878A] | 137.1 % control | 101.0 % Control | 96.0 % control | 104.0 % control | 103.1 % Control | 108.0 % control | 80.2 % control | 129.4 % control | –
O=c1oc2ccccc2cc1-c1cn2cc(Cc3ccc(F)cc3)sc2n1 [UNC10302680A] | 107.8 % control | 96.3 % Control | 103.3 % control | 59.2 % control | 99.6 % Control | 132.0 % control | 72.6 % control | 114.2 % control | –
CC(C)CCC[C@@H](C)[C@H]1CC[C@H]2[C@@H]3CC[C@H]4C[C@H](N)CC[C@]4(C)[C@H]3CC[C@]12C [UNC10302970A] | 97.2 % control | 81.8 % Control | 134.0 % control | 18.3 % control | 108.5 % Control | 93.1 % control | 40.9 % control | 160.9 % control | –
C[C@]12C=CC(=O)C=C1CC[C@@H]1[C@@H]2[C@@H](O)C[C@@]2(C)[C@H]1CC[C@]2(O)C(=O)CO [UNC10240227A] | 161.9 % control | 102.8 % Control | 82.5 % control | 107.8 % control | 102.9 % Control | 105.7 % control | 79.4 % control | 126.6 % control | –
O=C(O)CCCc1nc(-c2ccc(Cl)c(Cl)c2)c(-c2ccccc2)o1 [UNC8366A] | – | – | – | – | – | – | – | – | 1. Cell count (% control) [1, 5]: 151.8 % control; 2. Nuclear Area (% Control) [1, 5]: 102.0 % Control; 3. Nuclear DNA Intensity (% control) [1, 5]: 90.3 % control; 1. Cell count (% control) [2, 6]: 118.0 % control; 2. Nuclear Area (% Control) [2, 6]: 106.9 % Control; 3. Nuclear DNA Intensity (% control) [2, 6]: 102.3 % control; 4. Phagocytosis (% control) [3, 7]: 67.3 % control; 4. Phagocytosis (% control) [4, 8]: 161.9 % control
O=S(=O)(c1ccc2c(c1)C(=NO)c1cc(S(=O)(=O)N3CCCCC3)ccc1-2)N1CCCCC1 [UNC10302976A] | 69.8 % control | 63.2 % Control | 194.1 % control | 11.0 % control | 116.9 % Control | 256.7 % control | 12.0 % control | 51.8 % control | –
CCCCc1nc(Cl)c(CO)n1Cc1ccc(-c2ccccc2-c2nn[nH]n2)cc1 [UNC10121212D] | 117.8 % control | 104.2 % Control | 96.6 % control | 142.4 % control | 103.1 % Control | 105.8 % control | 86.3 % control | 120.9 % control | –
N#CC(CCCN1CCN(/N=C/c2cccnc2)CC1)(c1ccccc1)c1ccccc1 [UNC10302973A] | 118.4 % control | 102.3 % Control | 89.1 % control | 73.0 % control | 106.0 % Control | 96.8 % control | 84.2 % control | 132.9 % control | –
CO[C@H]1C[C@@H]2CC[C@@H](C)[C@@](O)(O2)C(=O)C(=O)N2CCCC[C@H]2C(=O)O[C@H]([C@H](C)C[C@@H]2CC[C@@H](O)[C@H](OC)C2)CC(=O)[C@H](C)/C=C(\C)[C@@H](O)[C@@H](OC)C(=O)[C@H](C)C[C@H](C)/C=C/C=C/C=C/1C [UNC10302852A] | 103.0 % control | 85.8 % Control | 119.9 % control | 54.7 % control | 106.2 % Control | 98.8 % control | 64.8 % control | 309.6 % control | –
COc1cc(C(=O)NS(=O)(=O)c2ccccc2C)ccc1Cc1cn(C)c2ccc(NC(=O)OC3CCCC3)cc12 [UNC10121228A] | 110.1 % control | 100.7 % Control | 103.6 % control | 90.6 % control | 103.2 % Control | 103.9 % control | 87.2 % control | 129.0 % control | –
C=C1[C@@H](C)[C@H]2[C@H](Cc3ccccc3)NC(=O)[C@]23[C@H](OC(C)=O)/C=C/[C@@](C)(O)C(=O)[C@@H](C)C/C=C/[C@H]3[C@@H]1O [Cytochalasin-D] | – | – | – | – | – | – | – | – | 1. Cell count (% control) ([1]; HMC3, control compound at 4uM): 57.1 % control; 2. Nuclear Area (% Control) ([1]; HMC3, control compound at 4uM): 76.9 % Control; 3. Nuclear DNA Intensity (% control) ([1]; HMC3, control compound at 4uM): 178.9 % control; 1. Cell count (% control) ([2]; BV2, control compound at 4uM): 9.1 % control; 2. Nuclear Area (% Control) ([2]; BV2, control compound at 4uM): 119.3 % Control; 3. Nuclear DNA Intensity (% control) ([2]; BV2, control compound at 4uM): 141.3 % control; 4. Phagocytosis (% control) ([3]; HMC3, control compound at 4uM, pHrodo-myelin): 4.8 % control; 4. Phagocytosis (% control) ([4]; BV2, control compound at 4uM, pHrodo-myelin): 18.4 % control
C[C@@H]1O[C@@H](O[C@H]2[C@H](Oc3cc(O)c4c(c3)O[C@H](c3ccc(O)cc3)CC4=O)O[C@H](CO)[C@@H](O)[C@@H]2O)[C@H](O)[C@H](O)[C@H]1O [UNC10242153A] | 139.8 % control | 102.9 % Control | 93.8 % control | 113.5 % control | 104.9 % Control | 98.8 % control | 65.7 % control | 167.6 % control | –
Cn1nccc1Nc1nccc(-c2ccn([C@H](CO)c3ccc(Cl)c(F)c3)c(=O)c2)n1 [UNC8131A] | – | – | – | – | – | – | – | – | 1. Cell count (% control) [1, 5]: 54.4 % control; 2. Nuclear Area (% Control) [1, 5]: 77.5 % Control; 3. Nuclear DNA Intensity (% control) [1, 5]: 167.5 % control; 1. Cell count (% control) [2, 6]: 15.3 % control; 2. Nuclear Area (% Control) [2, 6]: 134.5 % Control; 3. Nuclear DNA Intensity (% control) [2, 6]: 44.7 % control; 4. Phagocytosis (% control) [3, 7]: 12.1 % control; 4. Phagocytosis (% control) [4, 8]: 0.00107 % control
NC(=O)[C@@H]1CC[C@H](c2ccc(OCc3ccccc3F)cc2)N1 [UNC10303186A] | – | – | – | – | – | – | – | – | 1. Cell count (% control) [1, 5]: 128.0 % control; 2. Nuclear Area (% Control) [1, 5]: 102.6 % Control; 3. Nuclear DNA Intensity (% control) [1, 5]: 95.0 % control; 1. Cell count (% control) [2, 6]: 138.2 % control; 2. Nuclear Area (% Control) [2, 6]: 103.3 % Control; 3. Nuclear DNA Intensity (% control) [2, 6]: 100.1 % control; 4. Phagocytosis (% control) [3, 7]: 105.3 % control; 4. Phagocytosis (% control) [4, 8]: 194.5 % control
